Test results as given in PMC4965013, “Open Source Drug Discovery with the Malaria Box Compound Collection for Neglected Diseases and Beyond” (PLoS Pathogens, 2016).
Like-named read-outs stand apart in the source and are kept apart here.

Tests used:
P. berghei ookinetes = tested on: P. berghei ookinetes; set-up: method as in ref [74] (a number printed in a supplementary file, which may have a reference list of its own: not looked up in the article's list); details: 1µM; ref [74]; cited from earlier work
[1] = tested on: U87-CD4-CCR5 or U87-CD4-CXCR4 cells; assay: U87 cell viability MTT; type: cell-based; details: for U87 % cell death rep3 (X4 P24 Washout expt): 5uM; for U87 % Cell Death rep3 (R5 P24 Washout expt) / U87 % cell death rep3 (R5 P24 NO Washout expt) / U87 % cell death rep3 (X4 P24 NO Washout expt) / U87 Luc % cell death rep1 / U87 Luc % cell death rep2: 5µM
B. caballi (USDA) = assay: B. caballi fluorescence-based growth assay; type: cell-based; details: Babesia caballi
P. falciparum HB3 = assay: Stage-specificity / mitochondrial integrity image assay Ayong; type: cell-based; details: 10µM
[2] = tested on: P. falciparum NF54Pfs16 gametocytes stage I-III; details: ref [61], cited from earlier work
[3] = tested on: S. mansoni newly transformed schistosomula (NTS); set-up: method as in ref [91] (a number printed in a supplementary file, which may have a reference list of its own: not looked up in the article's list); details: ref [91]; read-out: Schistosoma mansoni newly transformed schistosomula EC50 J. Keiser; cited from earlier work
[4] = tested on: Naegleria fowleri trophozoites; assay: Naegleria fowleri CellTiter-Glo; type: cell-based; details: 1µM
Summary of the method: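 Growth inhibition of Naegleria fowleri trophozoites in vitro, read as cellular ATP by CellTiter-Glo 2.0 luminescence in lysed cells, output in relative light units.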

Brugia malayi = Brugia malayi Scynexis; type: cell-based; details: 10µM
Procedure: Supplement ppat.1005763.s002.xlsx, sheet "S1 Table Heat Map" | column: Brugia malayi 5d % dead at 10µM Scynexis

Chromera velia = Chromera velia flagellation motility assay; details: 1µM
B. bovis (Texas strain) = assay: B. bovis fluorescence-based growth assay; type: cell-based; details: Babesia bovis, in Bos taurus
[5] = tested on: Trypanosoma brucei brucei 427; assay: T. brucei brucei Scynexis; type: cell-based
[6] = tested on: HIV-1 JR-FL or HIV-1 NL4-3 viruses; assay: HIV-1 viral production p24 ELISA; type: cell-based
Procedure: Columns FK-GB, Moore group (data presented first in this paper). HIV and HIV-producing cell lines, toxicity and viral suppression. […] MMV compounds were incubated with HIV-1 JR-FL or HIV-1 NL4-3 pseudoviruses and U87-CD4-CCR5 or U87-CD4-CXCR4 cells (obtained through the NIH AIDS Reagent Program, Division of AIDS, NIAID, NIH: U87 CD4+CCR5+ Cells from Dr. HongKui Deng and Dr. Dan R. Littman) respectively for 3 days. Cells were assayed for infection by luciferase production (Bright-Glo Luciferase Substrate, Promega) and cell viability by MTT assay. […] MMV compounds were next incubated with HIV-1 JR-FL or HIV-1 NL4-3 viruses and U87-CD4-CCR5 or U87-CD4-CXCR4 cells respectively for 7 days. Cell supernatants were assayed for viral production by p24 ELISA [153] and cell viability by MTT assay. […] DMSO (5%) was completely toxic to all cells (based on visual inspection) and served as the positive control for MTT assays.

[7] = tested on: P. falciparum 3D7 gametocytes stage IV-V; assay: Gametocyte pLDH assay UMIL; type: cell-based; details: Plasmodium falciparum, 3D7, 72 h
Procedure: Columns BO-BR: Taramelli group (Columns BO-BP data presented first in this paper, Columns BQ-BR are new data except as noted below). Gametocytocidal activity at UMIL. The Malaria Box compounds were used for primary screening against P. falciparum 3D7 gametocytes and subsequently for IC50 determination against Pf gametocytes obtained from the 3D7 and the 3D7elo1-pfs16-CBG99 transgenic strain [74], as previously described. The primary screening was performed on stage IV-V gametocytes from the 3D7 strain at 3.7 µM, in 96 well plates, using 100 nM epoxomicin and 1 µM DHA as positive controls and 0.5% DMSO as negative untreated control. […] The dose-response experiments were performed in 96 well plates using the 3D7 strain (pLDH, 72+72h, column BR in heat map) and the 3D7elo1-pfs16-CBG99 (luciferase assay, 72h, column BQ in heat map). Data analysis was performed as described.

Aedes aegypti = Aedes aegypti Scynexis; details: 10µM
Procedure: Supplement ppat.1005763.s002.xlsx, sheet "S1 Table Heat Map" | column: Aedes aegypti % dead 48hr 10 µM Synexis

[8] = tested on: P. falciparum NF54 gametocytes stage I-V; set-up: method as in ref [58, 65] (a number printed in a supplementary file, which may have a reference list of its own: not looked up in the article's list); details: 12.5µM; ref [58, 65]; cited from earlier work
HepG2-A16-CD81EGFP cells = details: 50uM; ref [58, 65]; cited from earlier work
[9] = tested on: P. falciparum Stage V male and female gametocytes; set-up: method as in ref [74] (a number printed in a supplementary file, which may have a reference list of its own: not looked up in the article's list); details: 1µM; ref [74]; cited from earlier work
[10] = Human immunodeficiency virus 1, NL43, read-out: HIV R5 % inhibition rep3 in U87 (P24 Washout)
[11] = Human immunodeficiency virus 1, NL43, read-out: HIV X4 % inhibition rep3 in U87 (P24 NO Washout)
[12] = Human immunodeficiency virus 1, NL43, read-out: HIV X4 %inhibition rep3 in U87 (P24 Washout)
[13] = 3.7 µM, read-out: gametocytes 3D7, stage IV-V, pLDH, 72+72h, %inhibition
[14] = 3.7µM, read-out: gametocytes 3D7, stage IV-V, pLDH, 72h, %inhibition
[15] = Human immunodeficiency virus 1, NL43, read-out: HIV R5 % inhibition rep3 in U87 (P24 NO Washout)

Structure (SMILES) | P. berghei ookinete assay % inhibition (P. berghei ookinetes) | U87 % cell death rep3 (X4 P24 Washout expt) [1] | U87 % Cell Death rep3 (R5 P24 Washout expt) [1] | U87 % cell death rep3 (R5 P24 NO Washout expt) [1] | U87 % cell death rep3 (X4 P24 NO Washout expt) [1] | U87 Luc % cell death rep1 [1] | U87 Luc % cell death rep2 [1] | EC50 (B. caballi (USDA)) | gametocyte early stage (I-III) luciferase % inhibition ([2]; 0.5µM) | gametocyte early stage (I-III) luciferase % inhibition ([2]; 2.5µM) | gametocyte early stage (I-III) luciferase % inhibition ([2]; 5µM) | EC50 [3] | Naegleria fowleri % growth [4] | Brugia malayi 5d % dead (Brugia malayi) | Chromera velia 24 hr Flagellation (control standardized to ++; 0 = no flagella) (Chromera velia) | Chromera velia 72 hr Flagellation (control standardized to ++; 0 = no flagella) (Chromera velia) | EC50 (B. bovis (Texas strain)) | inhibition at 5 µM [5] | inhibition at 5 µM [6, 10] | inhibition at 5 µM [6, 11] | further results
CCN1CCN(c2cc(C)c3cc(NC(=O)c4ccc(OC)c(OC)c4)ccc3n2)CC1 [MMV019074] | -2.9% | -32% | 7.48% | 17% | 3.26% | 0.063% | 10% | 5.93 µM | -13% | -14% | -6.56% | > 33.3 µM | 88% | -2% | +++ | +++ | 6.69 µM | 45% | 7% | 14% | P. falciparum HB3 early ring (ER) stage activity (P. falciparum HB3): ✖; P. falciparum HB3 late ring (LR) stage activity (P. falciparum HB3): ✖; inhibition at 5 µM [6, 12]: 6.64%; inhibition at 3.7 µM [7, 13]: 13%; inhibition at 3.7 µM [7, 14]: 10%; Aedes aegypti % dead 48hr (Aedes aegypti): -20%; gametocyte Stage I % inhibition [8]: 66%; gametocyte Stage II % inhibition [8]: 32%; gametocyte Stage III % inhibition [8]: -6%; gametocyte Stage IV % inhibition [8]: 16%; gametocyte Stage V % inhibition [8]: 9%; HepG2 toxicity rep 1 (HepG2-A16-CD81EGFP cells): 1.64%; HepG2 toxicity rep 2 (HepG2-A16-CD81EGFP cells): -0.0766%; Male gametocyte Stage V % inhibition of gamete formation [9]: -3.72%; female gametocyte Stage V % inhibition of gamete formation [9]: -9%
COc1ccc(C(=O)Nc2ccc3nc(N4CCCCC4)cc(C)c3c2)cc1OC [MMV019758] | -18.9% | -25% | 3.19% | 39% | -2.11% | -1.12% | 4.5% | 0.51 µM | -7% | -13% | -5.6% | > 33.3 µM | 87% | 9% | + | ++ | 14.3 µM | -11% | 83% | 68% | P. falciparum HB3 late ring (LR) stage activity (P. falciparum HB3): ✖; inhibition at 5 µM [6, 15]: 31%; inhibition at 5 µM [6, 12]: 24%; inhibition at 3.7 µM [7, 13]: 11%; inhibition at 3.7 µM [7, 14]: 12%; Aedes aegypti % dead 48hr (Aedes aegypti): 6%; gametocyte Stage I % inhibition [8]: 72%; gametocyte Stage II % inhibition [8]: 41%; gametocyte Stage III % inhibition [8]: 3.44%; gametocyte Stage IV % inhibition [8]: 8%; gametocyte Stage V % inhibition [8]: 0.3%; HepG2 toxicity rep 1 (HepG2-A16-CD81EGFP cells): -1%; HepG2 toxicity rep 2 (HepG2-A16-CD81EGFP cells): -1.21%; Male gametocyte Stage V % inhibition of gamete formation [9]: 10%; female gametocyte Stage V % inhibition of gamete formation [9]: -48%
COc1cc2cc(C(=O)Nc3ccccc3)c(N)nc2cc1OC [MMV006767] | 8.6% | 51% | -0.103% | 95% | 106% | 75% | 43% | 6.22 µM | -7% | 7.41% | 19% | > 33.3 µM | 95% | 18% | +++ | ++ | 0.86 µM | -54% | 9% | 104% | P. falciparum HB3 late ring (LR) stage activity (P. falciparum HB3): T,S; P. falciparum HB3 trophozoite (T) stage activity (P. falciparum HB3): ✖; inhibition at 5 µM [6, 15]: 103%; inhibition at 5 µM [6, 12]: 56%; inhibition at 3.7 µM [7, 13]: 2.43%; inhibition at 3.7 µM [7, 14]: 10%; Aedes aegypti % dead 48hr (Aedes aegypti): -3%; gametocyte Stage I % inhibition [8]: 96%; gametocyte Stage II % inhibition [8]: 56%; gametocyte Stage III % inhibition [8]: 26%; gametocyte Stage IV % inhibition [8]: 12%; gametocyte Stage V % inhibition [8]: 23%; HepG2 toxicity rep 1 (HepG2-A16-CD81EGFP cells): 82%; HepG2 toxicity rep 2 (HepG2-A16-CD81EGFP cells): 90%; Male gametocyte Stage V % inhibition of gamete formation [9]: 22%; female gametocyte Stage V % inhibition of gamete formation [9]: -10%
CCOC(=O)c1cnc2ccc(OC)cc2c1NCc1ccccc1 [MMV665813] | -6.8% | 12% | -10% | -9% | 46% | -52% | 36% | 5.9 µM | -13% | -10% | -8% | > 33.3 µM | 91% | 12% | +++ | ++ | 0.72 µM | -25% | -13% | 20% | inhibition at 5 µM [6, 15]: -50%; inhibition at 5 µM [6, 12]: 16%; inhibition at 3.7 µM [7, 13]: 12%; inhibition at 3.7 µM [7, 14]: 26%; Aedes aegypti % dead 48hr (Aedes aegypti): -2%; gametocyte Stage I % inhibition [8]: 68%; gametocyte Stage II % inhibition [8]: 46%; gametocyte Stage III % inhibition [8]: -0.559%; gametocyte Stage IV % inhibition [8]: 15%; gametocyte Stage V % inhibition [8]: 12%; HepG2 toxicity rep 1 (HepG2-A16-CD81EGFP cells): -1.52%; Male gametocyte Stage V % inhibition of gamete formation [9]: -13%; female gametocyte Stage V % inhibition of gamete formation [9]: -41%
